Key:
[1] = Drug release from drug loaded lenses into PBS; assay type: physicochemical; details: 34 degrees C
Method: Five drug loaded lenses, all together, were placed into 1 mL of phosphate buffered saline (PBS) and placed in a shaking water bath at thirty-four (34) degrees C. Samples were taken at regular intervals and replaced with fresh PBS. Release samples were analyzed spectrophotometrically to determine the concentration. As well, the nature of the peaks was also examined to determine whether there were any changes relative to the control samples (freshly prepared drug in appropriate buffer solutions). Drug loading and release was controlled using different loading concentrations to determine whether the release rate of the drug could be altered by changing simply or easily controlled conditions. Various drug concentrations were examined. In the case of 1 DAM, AT in ethanol and water (1:1) at various concentrations was examined or utilized. For the ATSM release from ATE lenses, the lenses were removed from the loading solution and rinsed to remove loosely physically adsorbed drug. For the 1 DAM lenses, the lenses were dried to remove any residual ethanol and rehydrated prior to the release study.
To establish drug release concentrations, five drug loaded lenses were placed into 1 ml of phosphate buffered saline (PBS) solution and placed in a shaking water bath at 34° C. […] Samples of solution were analyzed spectrophotometrically to determine the concentration of the released drug.

progression of myopia = details: 0.5 percent drops instilled one time per day; cited from earlier work

Row | SMILES | release of drug from 1 DAM lenses ([1]; 1 DAM lenses, FIG. 5) | release rate from ATE lenses as compared to 1 DAM lenses ([1]; ATE lenses, FIG. 7) | efficacy in slowing the progression of myopia (progression of myopia)
1 | CN1[C@@H]2CC[C@H]1C[C@@H](OC(=O)C(CO)c1ccccc1)C2 (stereo partly drawn) [ATSM, atropine sulphate monohydrate] | release more quickly in greater amounts | somewhat lower release rate | –
2 | CN1[C@@H]2CC[C@H]1C[C@@H](OC(=O)C(CO)c1ccccc1)C2 (stereo partly drawn) [Atropine, atropine] | – | – | show efficacy in slowing the progression of myopia
